The subject of data set [1] is COLO 205, HCC2998, HCT-15, KM12 and SW-620 cells. To be noted: read-out: average IC50 against COLO 205, HCC2998, HCT-15, KM12 and SW-620 cells; cited from earlier work.
A short description of data set [2]: Cytotoxicity against non-malignant HGF cells, MTT method, 48 h. It counts as cell-based. To be noted: human, gingival fibroblasts (HGF). The gist of the method:
(§1)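 Oral squamous carcinoma lines and normal oral cells (gingival fibroblast, periodontal ligament fibroblast, pulp) were exposed to various compound concentrations in DMEM with 10% heat-inactivated FBS at 37 °C for 48 h. Viability was read by MTT.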
A general note: Tetrazolium assays rely on reduction of a dye to a coloured formazan, in cell work by metabolically active cells.

A short description of data set [3]: Stability by 1H NMR in 9:1 deuterated dimethylsulfoxide and deuterium oxide. The data set is classed as physicochemical. To be noted: 37 °C.
In data set [4] the test system is HSC-4 cells. Put plainly: Cytotoxicity against HSC-4 cells, MTT method, 48 h. The data set is classed as cell-based, human. To be noted: for CC50: Homo sapiens, read-out: CC50 HSC-4; for SI HSC-4: average CC50 towards HGF, HPLF, HPC divided by CC50 against HSC-4. The gist of the method:
as §1

The nature of data set [5]: Average over HGF, HPLF and HPC non-malignant cells. The data set is classed as cell-based. To be noted: human, HPLF and HPC non-malignant cells (average of the three). The gist of the method: as §1
Data set [6] in a line: Cytotoxicity against non-malignant HPLF cells, MTT method, 48 h. It counts as cell-based. To be noted: human, periodontal ligament fibroblasts (HPLF). The gist of the method: as §1
Data set [7] can be described thus: Cytotoxicity against non-malignant HPC cells, MTT method, 48 h. It counts as cell-based. To be noted: human, pulp cells (HPC). The gist of the method: as §1
Data set [8] relates to HSC-2 cells. Put plainly: Cytotoxicity against HSC-2 cells, MTT method, 48 h. It counts as cell-based, human. To be noted: for CC50: Homo sapiens, HSC-2, concentration required to kill 50% of the cells, 48 h, MTT; for SI HSC-2: average CC50 towards HGF, HPLF, HPC divided by CC50 against HSC-2. The gist of the method: as §1
In data set [9] the test system is CEM T-lymphoblastic leukemia cells. Put plainly: Cytotoxicity against CEM cells, MTT method, 24 h. To be noted: Homo sapiens, CCRF-CEM, concentration required to inhibit cell growth by 50%. It counts as cell-based. As to the method: The method used for the evaluation of various compounds against human CEM cells has been reported previously. In brief, cells were grown in RPMI-1640 medium supplemented with 10% heat-inactivated fetal bovine serum. Different concentrations of compounds were added to the media, and after 24 h incubation, cytotoxicity was measured by the MTT method.

The subject of data set [10] is Ca9-22 cells. Put plainly: Cytotoxicity against Ca9-22 cells, MTT method, 48 h. To be noted: for CC50: Homo sapiens, read-out: CC50 Ca9-22; for SI Ca9-22: average CC50 towards HGF, HPLF, HPC divided by CC50 against Ca9-22. It counts as cell-based, human. The gist of the method: as §1
For data set [11], the system named is Ca9-22, HSC-2 and HSC-4 cells. Put plainly: Average over Ca9-22, HSC-2 and HSC-4 neoplastic cells. It counts as cell-based, human. To be noted: for CC50: Homo sapiens, read-out: Average CC50; for Average SI: average of SI for Ca9-22, HSC-2 and HSC-4. The gist of the method:
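Compounds applied at various concentrations to human oral squamous carcinoma lines in DMEM with 10% heat-inactivated FBS for 48 h at 37 °C; viability read by MTT. Values are averaged across the three tumour lines.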

The subject of data set [12] is CEM cells. Put plainly: Effect on mitochondrial membrane potential, JC-1 dye, flow cytometry. To be noted: CC50 and twice CC50 concentrations, 8 h. It counts as cell-based, human. As to the method: The effect of 4b,c on the mitochondrial membrane potential of CEM cells was determined using a literature method. In brief, the cells were incubated with the compounds for 8 h. The neoplasms were then stained with the JC-1 dye and the results were obtained using flow cytometry.

Data set [13] has as its system Ca9-22 cells. Put plainly: Cell cycle analysis and morphological changes in Ca9-22 cells. It counts as cell-based, human. To be noted: 24 h. Here is the method: Treated and untreated Ca9-22 cells (approximately 10^6 cells) were harvested, fixed with 1% paraformaldehyde, treated with 0.2 mg/mL RNase A (preheated for 10 min at 100 °C to inactivate DNase), stained for 15 min with 0.01% propidium iodide in the presence of 0.01% NP-40 to prevent cell aggregation, filtered through Falcon® cell strainers ([…]) (Corning, NY, USA), subjected to cell sorting (SH800 Series; SONY Imaging Products and Solutions Inc., Kanagawa, Japan) and then analyzed with Cell Sorter Software version 2.1.2. (SONY Imaging Products and Solutions Inc., Kanagawa, Japan), as described previously.

In data set [14] the test system is HL-60 (TB), K-562, RPMI-8226 and SR cells. More on the design: method as in PMID 24657568. To be noted: read-out: average IC50 against HL-60 (TB), K-562, RPMI-8226 and SR cells; cited from earlier work.
[15] abbreviates: HSC-4, concentration required to kill 50% of the cells, 48 h, MTT.
[16] abbreviates: Ca9-22, concentration required to kill 50% of the cells, 48 h, MTT.
[17] abbreviates: average of Ca9-22, HSC-2 and HSC-4.

Molecules are shown by their SMILES. Where two headings read alike, the source gives them in different places. Bounds are passed on as bounds.

`O=c1[nH]cc(F)c(=O)[nH]1` [5-fluorouracil]: the IC50 (in general, the concentration that inhibits the measured activity by half) in data set [1] is 8.46 µM.
As to `C[N+]1(CCC(=O)N2C/C(=C\c3ccccc3)C(=O)/C(=C/c3ccccc3)C2)CCC(=NO)CC1` (stereo not drawn) [Compound 4a, (3~{E},5~{E})-3,5-bis-benzylidine-1-[3-(4-hydroximino-1-piperidyl)propanoyl]piperidin-4-one methiodide], the melting point (commonly the temperature of the solid-liquid transition) is 173 °C. Besides, in [2], it took 9.65 ± 1.23 µM to reach half-maximal cytotoxicity (CC50 at 48 h). In addition, in data set [3], the “stability: 1H NMR spectra in dissolution and after 48 h incubation” value is “identical”. For the same compound, the CC50 (as a rule, the concentration at which the toxic effect on the cells reaches its halfway point) in [4] (setting [15]) was 0.58 ± 0.04 µM. In addition, the “SI HSC-4” value in [4] amounted to 29.3. Moreover, the CC50 at 48 h in [5] was determined as 17 µM. Besides, the CC50 at 48 h in [6] was found to be 24.6 ± 1.1 µM. Further, in [7], it took 16.8 ± 0.68 µM to reach half-maximal cytotoxicity (CC50 at 48 h). In data set [8], the CC50 worked out at 1.45 ± 0.16 µM and the “SI HSC-2” value came out at 11.7. Also, 7.62 ± 1.44 µM corresponded to half-maximal inhibition in data set [9] (IC50). The CC50 in data set [10] (setting [16]) was found to be 0.56 ± 0.01 µM. The “SI Ca9-22” value in data set [10] is 30.4. For the same compound, the CC50 in data set [11] (setting [17]) is 0.86 µM. The “Average SI” value in [11] was found to be 23.8.
With `C[N+]1(CCC(=O)N2C/C(=C\c3ccc(F)cc3)C(=O)/C(=C/c3ccc(F)cc3)C2)CCC(=NO)CC1` (stereo not drawn) [Compound 4b, (3~{E},5~{E})-3,5-bis[(4-fluorophenyl)methylene]-1-[3-(4-hydroximino-1-piperidyl)propanoyl]piperidin-4-one methiodide], the CC50 at 48 h in data set [2] stood at 4.5 ± 1.39 µM; in [5], 8.31 µM; in data set [6] it was 9.13 ± 0.48 µM; in data set [7], 11.3 ± 2.59 µM. Also, the “effect on the mitochondrial membrane potential (MMP)” value in data set [12] was “interfered with the MMP”. In addition, the CC50 came to 0.21 ± 0.01 µM in [4] (setting [15]), 0.42 ± 0.14 µM in data set [8], 0.29 ± 0.23 µM in [10] (setting [16]) and 0.31 µM in data set [11] (setting [17]). The “SI HSC-4” value in data set [4] was 39.6. Besides, the “SI HSC-2” value in data set [8] was 19.8. The compound further displayed an IC50 in data set [9] of 1.05 ± 0.38 µM. Besides, in [10], the “SI Ca9-22” value is on record as 28.7. Besides, in data set [11], the “Average SI” value turned out to be 29.4.
As for `C[N+]1(CCC(=O)N2C/C(=C\c3ccc(Cl)cc3)C(=O)/C(=C/c3ccc(Cl)cc3)C2)CCC(=NO)CC1` (stereo not drawn) [Compound 4c, (3~{E},5~{E})-3,5-bis[(4-chlorophenyl)methylene]-1-[3-(4-hydroximino-1-piperidyl)propanoyl]piperidin-4-one methiodide], the CC50 at 48 h in [2] was determined as 1.65 ± 0.17 µM; in [5] it was 4.04 µM; in [6], 4.17 ± 1.44 µM; in [7] it was 6.3 ± 0.7 µM. In addition, the “effect on the mitochondrial membrane potential (MMP)” value in data set [12] is given as “interfered with the MMP”. Also, the CC50 stood at 0.09 ± 0.03 µM in [4] (setting [15]), 0.06 ± 0.01 µM in data set [8], 0.02 ± 0.01 µM in data set [10] (setting [16]) and 0.06 µM in data set [11] (setting [17]). In addition, the “SI HSC-4” value in data set [4] is given as 44.9. Further, the “SI HSC-2” value in data set [8] came out at 67.3. This compound showed an IC50 in data set [9] of 4.96 ± 0.28 µM. Further, the “SI Ca9-22” value in [10] stood at 202.
As to `C[N+]1(CCC(=O)N2C/C(=C\c3ccc(Cl)c(Cl)c3)C(=O)/C(=C/c3ccc(Cl)c(Cl)c3)C2)CCC(=NO)CC1` (stereo not drawn) [Compound 4d, (3~{E},5~{E})-3,5-bis[(3,4-dichlorophenyl)methylene]-1-[3-(4-hydroximino-1-piperidyl)propanoyl]piperidin-4-one methiodide], the “morphological change and cell cycle effect” value in [13] is given as “induced cell spreading due to G2/M cell accumulation without the induction of a subG1 population”. The CC50 at 48 h in data set [2] turned out to be 1.15 ± 0.41 µM; in data set [5], 2.36 µM; in [6], 2.12 ± 0.2 µM; in [7], 3.81 ± 0.02 µM. The CC50 in [4] (setting [15]) is 0.03 µM; in data set [8] it was 0.03 µM; in data set [10] (setting [16]) it was 0.01 µM; in data set [11] (setting [17]) it was 0.02 µM. In addition, in data set [4], the “SI HSC-4” value amounted to 78.7. In addition, the “SI HSC-2” value in data set [8] turned out to be 78.7. In addition, in [9], the midpoint of inhibition, the IC50, lay at 5.19 ± 0.66 µM. Also, in [10], the “SI Ca9-22” value amounted to 236.
For the compound `N[C@@H](Cc1ccc(N(CCCl)CCCl)cc1)C(=O)O` [Melphalan, reference compound], the IC50 in data set [14] was 56.7 µM. The CC50 at 48 h was 157 ± 38.2 µM in data set [2], 195 ± 4.04 µM in data set [6] and over 200 µM in [7]. For the same compound, the CC50 turned out to be 17.4 ± 0.88 µM in data set [4] (HSC-4, 48 h); 48.5 ± 1.33 µM in data set [10] (Ca9-22, 48 h); 26.7 µM in [11].

The values are drawn from paper PMC8659243, “Design, Synthesis and Tumour-Selective Toxicity of Novel 1-[3-{3,5-Bis(benzylidene)-4-oxo-1-piperidino}-3-oxopropyl]-4-piperidone Oximes and Related Quaternary Ammonium Salts” (Molecules, 2021).
